# Test results as given in patent US9975861B2, “Dual inhibitor compounds for use in the treatment of neurodegenerative disorders and alzheimer's disease” (FONDAZIONE ISTITUTO ITALIANO DI TECNOLOGIA, priority 2014, dated 2018).
# Key:
# [1] = system: neurosphere cultures of primary rat neural stem cells; experiment: Neurosphere cultures, immunocytochemistry for neural markers; assay type: cell-based; settings: 10 μM during a week; compared to control (FIG. 3)
# Text: Neurosphere (NS) cultures were derived from the hippocampus of adult rats and induced to proliferate using established passaging methods to achieve optimal cellular expansion according to published protocols [Ferron, S. R.; Andreu-Agullo, C.; Mira, H.; Sanchez, P.; Marques-Torrejon, M. A.; Farinas, I. A combined ex/in vivo assay to detect effects of exogenously added factors in neural stem cells. Nature Protoc. 2007, 2, 849-859]. Rats were decapitated, brains removed, and the hippocampus dissected as described [Morales-Garcia, J. A.; Luna-Medina, R.; Alfaro-Cervello, C.; Cortes-Canteli, M.; Santos, A.; Garcia-Verdugo, J. M.; Perez-Castillo, A. Peroxisome proliferator-activated receptor gamma ligands regulate neural stem cell proliferation and differentiation in vitro and in vivo. Glia 2011, 59, 293-307]. Briefly, cells were seeded into 12-well dishes and cultured in DMEM/F12 (1:1, Invitrogen) containing 10 ng/mL epidermal growth factor (EGF, Peprotech, London, UK), 10 ng/mL fibroblast growth factor (FGF, Peprotech), and B27 medium (Gibco). After 3 days in culture, NS were cultivated in the presence or absence of the indicated compounds (10 μM) during a week. After that, NS from 10-day old cultures were plated for 72 hours onto 100 μg/mL poly-L-lysine-coated coverslips in the absence of exogenous growth factors.
# Neurogenesis is a crucial property for new AD-modifying drugs, since it confers the potential to increase endogenous regeneration as a repair mechanism in the damaged brain, and reduce neuronal loss and degeneration. Considering that GSK-3β inhibition is reported to regulate and increase neurogenesis [Lange, C.; Mix, E.; Frahm, J.; Glass, A.; Muller, J.; Schmitt, O.; Schmole, A. C.; Klemm, K.; Ortinau, S.; Hubner, R.; Frech, M. J.; Wree, A.; Rolfs, A. Small molecule GSK-3 inhibitors increase neurogenesis of human neural progenitor cells. Neurosci. […]
# Human recombinant GSK-3β = Human recombinant GSK-3β (Homo sapiens (Human), UniProt P49841); experiment: Inhibition of GSK-3β (Kinase-Glo luminescent kinase assay); assay type: biochemical; settings: 1 μM ATP, 25 μM substrate, 30 minutes at 30° C.
# Procedure: Human recombinant GSK-3β was purchased from Millipore (Millipore Iberica S.A.U.) The prephosphorylated polypeptide substrate was purchased from Millipore (Millipore Iberica SAU). Kinase-Glo Luminescent Kinase Assay was obtained from Promega (Promega Biotech Iberica, SL). ATP and all other reagents were from Sigma-Aldrich. Assay buffer contained 50 mM 4-(2-hydroxyethyl)-1-piperazineethanesulfonic acid (HEPES) (pH 7.5), 1 mM ethylenediaminetetraacetic acid (EDTA), 1 mM ethylene glycol tetraacetic acid (EGTA), and 15 mM magnesium acetate. The method developed by Baki was followed [Baki et al. Assay and Drug Development Technologies 2007, 5(1),75-83] to analyze the inhibition of GSK-3β. Kinase-Glo assays were performed in assay buffer using white 96-well plates. In a typical assay, 10 μL (10 μM) of test compound (dissolved in DMSO at 1 mM concentration and diluted in advance in assay buffer to the desired concentration) and 10 μL (20 ng) of enzyme were added to each well followed by 20 μL of assay buffer containing 25 μM substrate and 1 μM adenosine triphosphate (ATP). […] After a 30 minutes incubation at 30° C., the enzymatic reaction was stopped with 40 μL of Kinase-Glo reagent. Glow-type luminescence was recorded after 10 minutes using a Fluoroskan Ascent multimode reader.
# The activity is proportional to the difference of the total and consumed ATP.
# β-secretase (BACE-1) = β-secretase (BACE-1) (Homo sapiens (Human), UniProt P56817); experiment: Inhibition of BACE-1 (fluorogenic APP-mimicking peptide substrate); settings: BACE-1 IC50 (μM), substrate 3 μM, 1 hour pre-incubation at rt, 15 minutes at 37° C.
# Procedure: β-secretase (BACE-1, Sigma-Aldrich) inhibition studies were performed by employing a peptide mimicking APP sequence as substrate (Methoxycoumarin-[sequence]dinitrophenyl, M-2420, Bachem, Germany). The following procedure was employed: 5 μL of test compounds (or DMSO, if preparing a control well) were pre-incubated with 175 μL of enzyme (in 20 mM sodium acetate containing 3-[(3-Cholamidopropyl)dimethylammonio]-1-propanesulfonate (CHAPS) 0.1% w/v) for 1 hour at rt. The substrate (3 μM, final concentration) was then added and left to react for 15 minutes at 37° C. The fluorescence signal was read at λem=405 nm (λexc=320 nm) using a Fluoroskan Ascent. […] The fluorescence intensities with and without inhibitor were compared and the percent inhibition due to the presence of test compounds was calculated. The background signal was measured in control wells containing all the reagents, except BACE-1 and subtracted. The % inhibition due to the presence of increasing test compound concentration was calculated by the following expression: 100−(IFi/IFo×100) where IFi and IFo are the fluorescence intensities obtained for BACE-1 in the presence and in the absence of inhibitor, respectively. […] The linear regression parameters were determined and the IC50 extrapolated (GraphPad Prism 4.0, GraphPad Software Inc.).
# [2] = system: primary astrocytes and microglial cells; experiment: Nitrites measurement (Griess reaction) in LPS-stimulated primary glial cells; assay type: cell-based, rat; settings: compounds 10 μM for 1 hour, then LPS 10 μg/mL for 24 hours; astrocytes and microglia; potency compared with 6-amino triazinones A-C (FIGS. 2A, 2B)
# Procedure: Astrocytes were prepared from neonatal (P2) rat cerebral cortex, as previously described by Luna-Medina et al. [Luna-Medina, R.; Cortes-Canteli, M.; Alonso, M.; Santos, A.; Martinez, A.; Perez-Castillo, A. Regulation of inflammatory response in neural cells in vitro by thiadiazolidinones derivatives through peroxisome proliferator-activated receptor gamma activation. J. Biol. Chem. 2005, 280, 21453-21462].
# Briefly, after removal of the meninges, the cerebral cortex was dissected, dissociated, and incubated with 0.25% trypsin/EDTA at 37° C. for 1 hour. After centrifugation, the pellet was washed 3 times with Hank's balanced salt solution (HBSS) (Gibco) and the cells were placed on noncoated flasks and maintained in HAMS/Dulbecco's modified eagle's medium (DMEM) (1:1) medium containing 10% of fetal bovine serum (FBS). After 15 days, the flasks were agitated on an orbital shaker for 4 hours at 240 rpm at 37° C., the supernatant was collected, centrifuged, and the cellular pellet containing the microglial cells resuspended in complete medium (HAMS/DMEM (1:1) containing 10% FBS) and seeded on uncoated 96-well plates. Cells were allowed to adhere for 2 hours, and the medium was removed to eliminate nonadherent oligodendrocytes. New fresh medium containing 10 ng/mL of granulocyte-macrophage colony-stimulating factor (GM-CSF) was added. The remaining astroglial cells adhered on the flasks were then trypsinized, collected, centrifugated, and plated onto 96-well plates with complete medium. The purity of cultures obtained by this procedure was >98% as determined by immunofluorescence with the OX42 (microglial marker) and the glial fibrillary acidic protein (GFAP, astroglial marker) antibodies.
# The potential anti-inflammatory activity of the selected compounds was tested by evaluating the production of nitrites from primary cultured glial cells. Primary cultures of astrocytes and microglia were incubated with the selected compounds (10 μM) for 1 hour, and then cells were cultured for another 24 hours with a potent inflammatory agent, such as lipopolysaccharide (LPS) (10 μg/mL). LPS is able to induce nitrite production and accumulation in the culture medium, which was assayed by the standard Griess reaction. Supernatants were collected from the media and mixed with an equal volume of Griess reagent (Sigma). Samples were then incubated at rt for 15 minutes and absorbance read using a plate reader at 492/540 nm.
# Chain of Human recombinant GSK-3β (P49841 whole entry): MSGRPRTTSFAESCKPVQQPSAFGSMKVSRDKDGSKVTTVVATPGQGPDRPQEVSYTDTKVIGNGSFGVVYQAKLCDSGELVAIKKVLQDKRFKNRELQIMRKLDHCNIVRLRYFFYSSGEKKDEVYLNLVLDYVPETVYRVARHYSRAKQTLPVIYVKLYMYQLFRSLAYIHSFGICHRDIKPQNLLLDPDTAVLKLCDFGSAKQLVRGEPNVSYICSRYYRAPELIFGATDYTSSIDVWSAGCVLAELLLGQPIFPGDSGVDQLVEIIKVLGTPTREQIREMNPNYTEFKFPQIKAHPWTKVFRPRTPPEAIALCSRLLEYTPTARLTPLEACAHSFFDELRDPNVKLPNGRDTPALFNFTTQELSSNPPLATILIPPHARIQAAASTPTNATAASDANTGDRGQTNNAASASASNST
# Chain of β-secretase (BACE-1) (P56817 46-501): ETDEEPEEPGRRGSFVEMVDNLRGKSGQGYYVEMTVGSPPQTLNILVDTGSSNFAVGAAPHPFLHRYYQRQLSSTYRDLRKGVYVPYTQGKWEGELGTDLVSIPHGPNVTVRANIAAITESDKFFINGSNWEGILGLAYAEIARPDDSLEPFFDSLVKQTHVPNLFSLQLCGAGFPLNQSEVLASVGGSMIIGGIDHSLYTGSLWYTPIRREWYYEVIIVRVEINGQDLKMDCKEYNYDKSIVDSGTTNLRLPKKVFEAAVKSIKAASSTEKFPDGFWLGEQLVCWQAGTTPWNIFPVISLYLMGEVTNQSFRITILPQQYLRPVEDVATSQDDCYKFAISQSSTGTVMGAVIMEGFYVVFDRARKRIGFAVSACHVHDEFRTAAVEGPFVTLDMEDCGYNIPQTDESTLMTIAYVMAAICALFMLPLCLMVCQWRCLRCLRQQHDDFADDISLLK
IC50 (Human recombinant GSK-3β) [µM],IC50 (β-secretase (BACE-1)) [µM],SMILES,number of MAP-2 positive cells (mature neuronal marker) [1],reduction of LPS-induced nitrite production [2]
–,–,"NC1=NC(c2ccc(F)cc2)NC(=O)N1 (centres unmarked) [Compound A, reference compound]",only a marginal increase,–
40.7 ± 2.7,50.3 ± 6.61,"CCNC1=NC(c2ccccc2C)NC(=O)N1 (centres unmarked) [Example 2, 6-(ethylamino)-4-(o-tolyl)-3,4-dihydro-1,3,5-triazin-2(1H)-one]",–,–
6.93 ± 0.14,–,"O=C1NC(Nc2ccccc2)=NC(c2ccc(F)cc2)N1 (centres unmarked) [Example 9, 4-(4-fluorophenyl)-6-(phenylamino)-3,4-dihydro-1,3,5-triazin-2(1H)-one]",–,higher potency
